Source: the Deep4Chem optical property database
Blank lines part the entries; values can stand above or below the molecule they belong to.

Assay: photoluminescence quantum yield (fraction); solvent given as SMILES

Structure (SMILES): [O-]c1ccccc1-c1[nH+]c2c3ccccc3c3ccccc3c2n1-c1ccccc1
photoluminescence quantum yield (in Cc1ccccc1): 0.191

Structure (SMILES): COc1ccc(N(c2ccc(/C=C(\C)c3ccccc3)cc2)c2ccc(OC)cc2)cc1
photoluminescence quantum yield (in Cc1ccccc1): 0.41

Structure (SMILES): CC(C)(C)c1ccc(-c2ccc3c(-c4ccc(C(C)(C)C)c5ccccc45)cc4c5cc(-c6ccc(C(C)(C)C)c7ccccc67)ccc5c(-c5ccc(C(C)(C)C)c6ccccc56)cc4c3c2)c2ccccc12
photoluminescence quantum yield (in ClCCl): 0.72

Structure (SMILES): O=P1(c2ccccc2)c2ccc(N3c4ccccc4Oc4ccccc43)cc2-c2cc(N3c4ccccc4Oc4ccccc43)ccc21
photoluminescence quantum yield (in Cc1ccccc1): 0.83
photoluminescence quantum yield (in c1ccc2c(c1)c1ccccc1n2-c1ccc(-c2ccc(-n3c4ccccc4c4ccccc43)cc2)cc1): 0.8

Structure (SMILES): CC[N+]1(CC)CN2C(=N1)C(C(=O)O)=Cc1cc(OC)c(OC)cc12
photoluminescence quantum yield (in O): 0.859

Structure (SMILES): CCCCOc1ccc(-c2cc3c(o2)c(-c2ccc(OCCCC)cc2)c2n3[B-](F)(F)[N+]3=Cc4c(-c5ccc(OCCCC)cc5)c5oc(-c6ccc(OCCCC)cc6)cc5n4[B-](F)(F)[N+]3=C2)cc1
photoluminescence quantum yield (in C1CCOC1): 0.44
photoluminescence quantum yield (in CN(C)C=O): 0.32
photoluminescence quantum yield (in CS(C)=O): 0.3
photoluminescence quantum yield (in Cc1ccccc1): 0.37
photoluminescence quantum yield (in ClC(Cl)Cl): 0.41
photoluminescence quantum yield (in ClCCl): 0.4

Structure (SMILES): CC1(C)Cc2c(c3ccccc3c3nc4c5c(c6ccccc6c4nc23)OC(C)(C)C5)O1
photoluminescence quantum yield (in C1CCCCC1): 0.42
photoluminescence quantum yield (in C1COCCO1): 0.47
photoluminescence quantum yield (in CC#N): 1
photoluminescence quantum yield (in CC(C)O): 1
photoluminescence quantum yield (in CCCCCC): 0.27
photoluminescence quantum yield (in CO): 1
photoluminescence quantum yield (in ClC(Cl)Cl): 0.53
photoluminescence quantum yield (in c1ccccc1): 0.52

Structure (SMILES): O=c1c2ccccc2sc2ccccc12
photoluminescence quantum yield (in C1CCOC1): 0.012
photoluminescence quantum yield (in C1COCCO1): 0.015
photoluminescence quantum yield (in CC#N): 0.066
photoluminescence quantum yield (in CC(C)=O): 0.024
photoluminescence quantum yield (in CC(C)O): 0.14
photoluminescence quantum yield (in CCCCOC(C)=O): 0.0078
photoluminescence quantum yield (in CO): 0.25
photoluminescence quantum yield (in OCCO): 0.41
photoluminescence quantum yield (in c1ccccc1): 0.012

Structure (SMILES): CCC1=C(C)C2=C(C)c3c(I)c(I)c(I)n3[B-](F)(F)[N+]2=C1C
photoluminescence quantum yield (in C1CCCCC1): 0.1
photoluminescence quantum yield (in CC(C)=O): 0.046
photoluminescence quantum yield (in CCO): 0.061
photoluminescence quantum yield (in CCOC(C)=O): 0.072
photoluminescence quantum yield (in CO): 0.051
photoluminescence quantum yield (in OCC(F)(F)F): 0.04

Structure (SMILES): C1=Cc2nc1c(-c1cccs1)c1ccc([nH]1)c(-c1cccs1)c1nc(c(-c3cccs3)c3ccc([nH]3)c2-c2cccs2)C=C1
photoluminescence quantum yield (in CN(C)C=O): 0.012
photoluminescence quantum yield (in ClCCl): 0.0046

Structure (SMILES): CCN(CC)c1ccc2cc(/C(Cl)=C/C=C/C(=C(C#N)C#N)c3ccc(N(c4ccccc4)c4ccccc4)cc3)c(=O)oc2c1
photoluminescence quantum yield (in CC(C)=O): 0.015
photoluminescence quantum yield (in CCOC(C)=O): 0.028
photoluminescence quantum yield (in CN(C)C=O): 0.002
photoluminescence quantum yield (in CS(C)=O): 0.003
photoluminescence quantum yield (in Cc1ccccc1): 0.098
photoluminescence quantum yield (in ClCCl): 0.018

Structure (SMILES): Cc1cc(-n2c3ccccc3c3cc4c(cc32)C2c3ccccc3C4c3ccccc32)ccc1-c1nc(-c2ccccc2)nc(-c2ccccc2)n1
photoluminescence quantum yield (in Cc1ccccc1): 0.8
photoluminescence quantum yield (in O=P(c1ccccc1)(c1ccccc1)c1ccccc1Oc1ccccc1P(=O)(c1ccccc1)c1ccccc1): 0.51

Structure (SMILES): Cn1c(/C=C/c2ccc(/C=C/c3nc4ccccc4[nH]3)cc2)[n+](C)c2ccccc21
photoluminescence quantum yield (in C1CCOC1): 0.157
photoluminescence quantum yield (in CC#N): 0.109
photoluminescence quantum yield (in CC(C)=O): 0.103
photoluminescence quantum yield (in CN(C)C=O): 0.12
photoluminescence quantum yield (in CO): 0.067
photoluminescence quantum yield (in CS(C)=O): 0.114
photoluminescence quantum yield (in O): 0.044

Structure (SMILES): CCN(CC)c1ccc(/C=C/c2cc(/C=C/c3ccc(N(CC)CC)cc3)nc(N)n2)cc1
photoluminescence quantum yield (in Cc1ccccc1): 0.72
photoluminescence quantum yield (in ClC(Cl)Cl): 0.61

Structure (SMILES): CCCCC(CC)CN1C(=O)c2cccc3c(C#Cc4ccc(N(c5ccccc5)c5ccccc5)cc4)ccc(c23)C1=O (stereo not given)
photoluminescence quantum yield (in C1CCCCC1): 0.66
photoluminescence quantum yield (in C1CCOC1): 0.62
photoluminescence quantum yield (in CC#N): 0.026
photoluminescence quantum yield (in Cc1ccccc1): 0.89
photoluminescence quantum yield (in ClC(Cl)Cl): 0.51

Structure (SMILES): Cc1csc2[n+]1[B-](F)(F)n1c(c3cccc4cccc1c43)=N2
photoluminescence quantum yield (in C1CCOC1): 0.83
photoluminescence quantum yield (in CC#N): 0.78
photoluminescence quantum yield (in CCCCCC): 0.99
photoluminescence quantum yield (in Cc1ccccc1): 0.99
photoluminescence quantum yield (in ClCCl): 0.95

Structure (SMILES): COc1ccc(C#Cc2nc3ccccc3nc2-c2cn(C)c3ccccc23)cc1
photoluminescence quantum yield (in C1CCOC1): 0.19
photoluminescence quantum yield (in CC#N): 0.13
photoluminescence quantum yield (in CC(C)=O): 0.16
photoluminescence quantum yield (in CC(C)O): 0.02
photoluminescence quantum yield (in CCO): 0.01
photoluminescence quantum yield (in CCOC(C)=O): 0.17
photoluminescence quantum yield (in CO): 0.01
photoluminescence quantum yield (in Cc1ccccc1): 0.3
photoluminescence quantum yield (in ClCCl): 0.19

Structure (SMILES): F[B-]1(F)n2c(ccc2-c2cccs2)C(c2ccc(Br)cc2)=C2C=CC(c3cccs3)=[N+]21
photoluminescence quantum yield (in ClC(Cl)Cl): 0.82

Structure (SMILES): CCCCC(CC)Cn1c2cc(C#N)ccc2c2ccc(C#Cc3cc(C#Cc4ccc5c6ccc(C#N)cc6n(CC(CC)CCCC)c5c4)c4ccc5c(C#Cc6ccc7c8ccc(C#N)cc8n(CC(CC)CCCC)c7c6)cc(C#Cc6ccc7c8ccc(C#N)cc8n(CC(CC)CCCC)c7c6)c6ccc3c4c65)cc21 (stereo not given)
photoluminescence quantum yield (in ClCCl): 0.61

Structure (SMILES): COc1ccc(/C=C2\OC(=O)c3cc(N)ccc32)cc1
photoluminescence quantum yield (in CC#N): 0.38
photoluminescence quantum yield (in CC(C)=O): 0.21
photoluminescence quantum yield (in CC(C)CO): 0.44
photoluminescence quantum yield (in CC(C)O): 0.4
photoluminescence quantum yield (in CCCO): 0.46
photoluminescence quantum yield (in CCO): 0.34
photoluminescence quantum yield (in CCOC(C)=O): 0.2
photoluminescence quantum yield (in CCOCC): 0.11
photoluminescence quantum yield (in CO): 0.29

Structure (SMILES): CC(C)c1cc(C(C)C)c(B2c3cc(-n4c5ccccc5c5ccccc54)ccc3N(c3ccccc3)c3ccc(-n4c5ccccc5c5ccccc54)cc32)c(C(C)C)c1
photoluminescence quantum yield (in c1cc(-c2cccc(-n3c4ccccc4c4ccccc43)c2)cc(-n2c3ccccc3c3ccccc32)c1): 0.99

Structure (SMILES): c1cc2ccc3ccc(-n4c5ccccc5c5ccccc54)c4ccc(c1)c2c34
photoluminescence quantum yield (in CCCCCC): 0.26
photoluminescence quantum yield (in CCO): 0.38
photoluminescence quantum yield (in CCOC(C)=O): 0.29
photoluminescence quantum yield (in ClCCl): 0.44

The next lines start with the values.

photoluminescence quantum yield (in ClC(Cl)Cl): 0.91
Structure (SMILES): CCCCCCn1c2cc(/C=C/c3ccccc3)ccc2c2ccc(/C=C/c3ccccc3)cc21

photoluminescence quantum yield (in C1COCCO1): 0.59
photoluminescence quantum yield (in CC#N): 0.57
photoluminescence quantum yield (in CO): 0.015
Structure (SMILES): CC(=O)c1ccc(/C=C/C=C/C2=NC3C(=O)NC(N)=NC3N2[C@H]2C[C@H](O)[C@@H](CO)O2)cc1 (stereo not given in full)

photoluminescence quantum yield (in C1CCCCC1): 0.09
Structure (SMILES): Oc1ccccc1

photoluminescence quantum yield (in CO): 0.06
Structure (SMILES): COc1ccc(-c2nc(-c3cccc(C#N)c3)[nH]c2-c2ccc(OC)cc2)cc1

photoluminescence quantum yield (in ClC(Cl)Cl): 0.15
Structure (SMILES): O=c1oc2ccccc2cc1-c1cn2ccccc2n1

photoluminescence quantum yield (in CCO): 0.16
Structure (SMILES): CCOC(=O)c1cc(C(=O)OCC)c2cc(O)ccc2n1

photoluminescence quantum yield (in C1CCCCC1): 0.03
photoluminescence quantum yield (in CO): 0.71
photoluminescence quantum yield (in CS(C)=O): 0.86
photoluminescence quantum yield (in ClC(Cl)Cl): 0.72
photoluminescence quantum yield (in c1ccccc1): 0.16
Structure (SMILES): CCC1=C(C)C(=O)n2c1cc1[nH]c(C(=O)OC(C)(C)C)c(C)c1c2=O

photoluminescence quantum yield (in C1CCOC1): 0.016
photoluminescence quantum yield (in CC#N): 0.013
photoluminescence quantum yield (in CCO): 0.0088
photoluminescence quantum yield (in CN(C)C=O): 0.0057
photoluminescence quantum yield (in CO): 0.0069
photoluminescence quantum yield (in CS(C)=O): 0.0056
Structure (SMILES): CSc1sc(C(=O)c2ccccc2)c2nn[nH]c(=O)c12

photoluminescence quantum yield (in CCO): 0.28
photoluminescence quantum yield (in ClCCl): 0.89
Structure (SMILES): Cc1ccccc1-c1c2ccc(=[N+]3CCCCC3)cc-2oc2cc(N3CCCCC3)ccc12

photoluminescence quantum yield (in ClC(Cl)Cl): 0.23
Structure (SMILES): CCn1c2ccccc2sc2c(C#N)c3oc4ccccc4oc3c(C#N)c21

photoluminescence quantum yield (in ClCCl): 0.53
Structure (SMILES): COCCOCCOCCOCC(COCCOCCOCCOC)Oc1cc(/C=C/c2ccc(C=C(C#N)C#N)cc2)c(OC(COCCOCCOCCOC)COCCOCCOCCOC)cc1/C=C/c1ccc(C=C(C#N)C#N)cc1

photoluminescence quantum yield (in CCO): 0.86
Structure (SMILES): CC(C)(C)OC(=O)NC(Cc1ccccc1)C(=O)OCc1ccc2c3cccc4cccc(c5cccc1c52)c43 (stereo not given)

photoluminescence quantum yield (in C1CCCCC1): 0.71
Structure (SMILES): CCC(C)(C)c1ccc(-c2ccc3c(c2)C(CCOC)(CCOC)c2cc(C(C)(C)CC)ccc2-3)cc1

photoluminescence quantum yield (in CC#N): 0.22
Structure (SMILES): CCN(CC)c1ccc(/C=N/c2ccccc2/N=C/c2ccc(N(CC)CC)cc2O)c(O)c1

photoluminescence quantum yield (in CO): 0.25
Structure (SMILES): COc1ccc(-c2nc(-c3cccc(OC)c3)[nH]c2-c2ccc(OC)cc2)cc1

photoluminescence quantum yield (in C1COCCO1): 0.64
photoluminescence quantum yield (in CC#N): 0.55
photoluminescence quantum yield (in CO): 0.87
photoluminescence quantum yield (in ClCCl): 0.42
photoluminescence quantum yield (in O): 0.95
Structure (SMILES): COC(=O)c1nc2cnc(N)nc2n1Cc1ccccc1

photoluminescence quantum yield (in ClCCl): 0.99
Structure (SMILES): COc1ccc(C2=Cc3ccccc3[Si]2(c2ccccc2)c2ccccc2)cc1

photoluminescence quantum yield (in CC(C)(C)O): 0.13
photoluminescence quantum yield (in CC(C)CO): 0.21
photoluminescence quantum yield (in CC(C)O): 0.21
photoluminescence quantum yield (in CCCCO): 0.23
photoluminescence quantum yield (in CCCO): 0.25
photoluminescence quantum yield (in CCO): 0.2
photoluminescence quantum yield (in CN(C)C=O): 0.03
photoluminescence quantum yield (in CNC=O): 0.14
photoluminescence quantum yield (in CO): 0.24
photoluminescence quantum yield (in NC=O): 0.44
photoluminescence quantum yield (in O): 0.11
Structure (SMILES): COCCOc1ccc(OCCOC)c(C=O)c1

photoluminescence quantum yield (in ClCCl): 0.61
Structure (SMILES): CCn1c2cc(-c3cccs3)ccc2c2ccc(-c3cccs3)cc21

photoluminescence quantum yield (in CO): 0.29
Structure (SMILES): COc1ccccc1-c1nc(-c2ccccc2)c(-c2ccccc2)[nH]1

photoluminescence quantum yield (in ClCCl): 0.71
Structure (SMILES): O=c1c2cccc3cccc(c32)c2nc3ccccc3n12

photoluminescence quantum yield (in CC#N): 0.113
Structure (SMILES): N#Cc1nn(-c2c(Cl)cccc2Cl)nc1N1CCCC1

photoluminescence quantum yield (in CC#N): 0.86
photoluminescence quantum yield (in ClCCl): 0.99
Structure (SMILES): O=c1c2cc(F)ccc2nc2n1[B-](F)(F)[n+]1ccccc1-2

photoluminescence quantum yield (in ClC(Cl)Cl): 0.44
Structure (SMILES): CCn1c2ccccc2oc2c(C#N)c3c(oc4ccccc4n3CC)c(C#N)c21

photoluminescence quantum yield (in CO): 0.18
Structure (SMILES): Cc1cc(C)c(B(c2cc(-c3ccc(N(C)C)cc3)sc2-c2sc(-c3ccc(N(C)C)cc3)cc2P(=O)(c2ccccc2)c2ccccc2)c2c(C)cc(C)cc2C)c(C)c1

photoluminescence quantum yield (in C1CCCCC1): 0.73
Structure (SMILES): CCc1c(C)c2n(c1C)[B-](F)(F)[N+]1=C(C=C3c4ccccc4-c4ccccc43)C=CC1=C2C

photoluminescence quantum yield (in CCO): 0.03
Structure (SMILES): c1ccc(N(c2ccccc2)c2ccccc2)cc1

photoluminescence quantum yield (in ClC(Cl)Cl): 0.14
photoluminescence quantum yield (in ClCCl): 0.217
Structure (SMILES): c1ccc(-c2nc(-c3ccccc3)n3ccccc23)cc1
